Reference: US6794409B2, “Use of ERβ-selective ligands for regulating fertility and compounds useful therefor” (priority 2001, dated 2004)
Where two headings read alike, the source gives them in different places.

What was measured:
hERβ [1] = test: Relative binding affinity to hERβ (Kuiper et al.); design: species or system human; conditions: quotient of RBA hERβ / hERα
Source text: (§1) In this case, it is assumed that ERβ predominates in the rat prostates over ERα, and ERα predominates in rat uteri over ERβ.

[2] = test system: estrogen receptor preparations from rat uteri; test: Competitive 3H-estradiol binding, rat uterus cytosol; conditions: 3H-estradiol as ligand, estradiol = 100
Source text: as §1

[3] = test system: estrogen receptor preparations from rat prostates; test: Competitive 3H-estradiol binding, rat prostate cytosol
Source text: as §1

hERβ [4] = conditions: cited from earlier work
[5] = test system: hypophysectomized immature female Wistar rats; test: Effect of ER-selective ligands on folliculogenesis in hypophysectomized rats; assay type: in vivo, rat; conditions: hypex immature Wistar rats
Source text: Intact immature female Wistar rats were hypophysectomized (hypex) on day 24 of age (d0). The following hormone treatments were initiated six days after surgery:
(§2) (a) hypex rats treated with vehicle (control group) (ethanol/arachisoil: 1+9 [v/v]) only
Animals were subcutaneously treated once per day for 4 consecutive days with the respective compounds or vehicle (day 6, 7, 8, 9). Number of animals per group were 5-6. The animals were randomly assigned to the treatment and vehicle (control) group.
One day after the last injection (day 10) animals were weighed and sacrificed by carbon dioxide asphyxiation. The ovaries were excised and weighed. Relative ovarian weights (in milligrams), defined as relative ovarian wet weights, were calculated per 100 g body weight for each animal. For each treatment group and control group the mean relative wet weights were determined. The one way ANOVA was applied to the data in order to compare treatment group values with the respective control group.
For histological evaluation, ovaries were placed in neutral buffered 3.7% formaldehyde solution. The ovaries were then embedded in paraffin, cut into 4 μm transverse sections, and stained with hematoxylin and eosin. Ovarian sections were then evaluated qualitatively for folliculogenesis.

[6] = test system: hypophysectomized immature female Wistar rats; test: Effect on late folliculogenesis and ovulation in hypophysectomized rats; assay type: in vivo, rat; conditions: hypex immature Wistar rats; 0.01, 0.1 and 1 mg/day s.c. for 4 days, then PMSG and hCG; FIG. 3
Protocol: Intact immature female Wistar rats were hypophysectomized (hypex) on day 24 of age (day 0). The following hormone treatments were initiated six days after surgery:
as §2
(b) hypex rats treated with 0.01, 0.1 and 1 mg 17β-estradiol/day
(c) hypex rats treated with 0.01, 0.1 and 1 mg of the ERα-selective compound B
(d) hypex rats treated with 0.01, 0.1 and 1 mg of the […] compound C
Animals were subcutaneously treated once per day for 4 consecutive days with the respective compounds or vehicle (day 6, 7, 8, 9). Number of animals per group were […]. The animals were randomly assigned to the treatment and vehicle (control) group.
One day after the last injection (day 10) animals were subcutaneously injected with 20 IU prgenant mare serum gonadotropin (PMSG). Two days later, at […], 10 IU human Chorionic Gonadotropin (hCG) were injected intraperitoneally in order to induce ovulation. At day 14 animals were weighed and sacrificed by carbon dioxide asphyxiation. The oviducts and ovaries were removed:
The oviducts were flushed with a M-2 medium and the oocytes per animal were counted after enzymatic disassociation from the surrounding cumulus with M-2 medium supplemented with 0.3% hyaluironidase. For each treatment group and control group the mean number of ovulated oocytes were calculated.
The ovaries were excised and weighed. Relative ovarian weights (in milligrams), defined as relative ovarian wet weights, were calculated per 100 g body weight for each animal. For each treatment group and control group the mean relativewet weights were determined.
The one way ANOVA was applied to the data in order to compare treatment group values with the respective control group.

[7] = test system: intact immature female Wistar rats; test: Effect on ovulation rate after superovulation (PMSG/hCG) of immature rats; assay type: in vivo, rat
Protocol: Superovulation experiments were carried out in three groups of intact immature female Wistar rats on day 23 of age. Number of animals per group were 5. The animals were randomly assigned to the three groups.
Each animal received a single subcutaneous (s.c.) injection of 20 I.U. pregnant mare's serum gonadotropin (PMSG) at day 0. At the same time (day 0) as well as 24 hours and 48 hours later the animals were s.c. injected with
(a) the vehicle formulation (control group: ethanol/aracisoil: 1+9 [v/v]) (group 1) or
(b) an ERβ- selective antagonist 17-Chloro-17aα-(trifluoromethyl)-17a-homoestra-1,3,5(10)16-tetraene-3,17aβ-diol (compound E) at the dose of 1 mg/kg (group 2) and 10 mg/kg (group 3). 54 hours after the start of the experiment the animals got a single intraperitoneal (i.p.) injection of 10 I.U. human chorion gonadotropin (hCG). The animals were then killed 16 hours after the hCG injection.
The ovaries and oviducts were removed. The ovulated oocyte/cumulus mass was extracted from the oviduct by flushing the oviduct with M-2 medium and the oocytes per animal were counted after enzymatic disassociation from the surrounding cumulus with M-2 medium supplemented with 0.3% hyaluronidase.

C[C@]12CC[C@H]3[C@@H](CC=C4C[C@@H](O)CC[C@@]43C)[C@@H]1CC[C@@H]2O [5-Androstenediol]
ERβ/ERα (hERβ [1]): 3
Rat uterus ER(RBA) [2]: 0.1
Rat prost. ER(RBA) ([3]; rat prostate cytosol, 3H-estradiol as ligand, estradiol = 100): 5
prost. ER/uterus ER ([3]; ratio of RBA rat prostate ER / rat uterus ER): 50
hERβ RBA (hERβ [4]): 17

C[C@]12CC[C@@H]3c4ccc(O)cc4CC[C@H]3[C@@H]1C[C@@H](O)[C@@H]2O [Estriol]
hERβ RBA (hERβ [4]; relative binding affinity, estradiol = 100): 21

C[C@]12CC[C@@H]3c4ccc(O)cc4CC[C@H]3[C@@H]1C[C@H]1OC(=O)C[C@]12O [compound B, 3,17β-Dihydroxy-19-nor-17α-pregna-1,3,5(10)-triene-21,16α-lactone]
ovarian wet weight ([5]; 0.01, 0.1 and 1 mg/day s.c. for 4 days, FIG. 1): not able to stimulate ovarian growth
folliculogenesis, histological evaluation of ovaries ([5]; s.c. for 4 days, hematoxylin and eosin sections, FIG. 2): many small atretic follicles comparable to the vehicle control group
number of ovulated oocytes [6]: not able to significantly stimulate
ovarian wet weight [6]: not able to significantly stimulate

C=C[C@@]12CCc3cc(O)ccc3[C@H]1CC[C@@]1(C)[C@H]2CC[C@@H]1O [compound C, 8β-Vinyl-1,3,5(10)-estratriene-3,17β-diol]
number of ovulated oocytes [6]: significantly increase the number of ovulated oocytes
ovarian wet weight [6]: significantly increase

CC12CCC3c4ccc(O)cc4CCC3C1CC=C(Cl)C2(O)C(F)(F)F (stereo not drawn) [compound E, 17-Chloro-17aα-(trifluoromethyl)-17a-homoestra-1,3,5(10)16-tetraene-3,17aβ-diol]
Ovulation rate (ova/rat) [x ± sd] ([7]; 1 mg/kg/day × 3 days s.c., group 2): 11 ± 5.6 ova/rat
Ovulation rate (ova/rat) [x ± sd] ([7]; 10 mg/kg/day × 3 days s.c., group 3): 8 ± 7.2 ova/rat
Ovulation rate (ova/rat) [x ± sd] ([7]; 10 mg/kg/day × 3 days s.c., group 3, listed as ERβ-specific antagonist): 8.0 ova/rat
